Experimental data as given in patent US20230357239A1, “PYRIDO[2,3-D]PYRIMIDIN-4-AMINES AS SOS1 INHIBITORS” (Bayer Aktiengesellschaft, priority 2020, published 2023).

Molecular target: human SOS1 (SOS1) with human K-RasG12C (Homo sapiens (Human), UniProt Q07889)
Test: hK-RasG12C interaction assay with hSOS1 (HTRF)
Type: binding
Settings: GST-hK-RasG12C and His-hSOS1, 60 min incubation at 20° C, mean, read-out: K-RasG12C - SOS interaction assay IC50 - [mol/l] (mean)
Method: Biochemical Assay: hK-RasG12C Interaction Assay with hSOS1
This assay quantifies the equilibrium interaction of human SOS1 (SOS1) with human K-Ras^G12C (K-RasG12C). Detection of the interaction is achieved by measuring homogenous time-resolved fluorescence resonance energy transfer (HTRF) from antiGST-Europium (FRET donor) bound to GST-K-RasG12C to anti-6His-XL665 bound to His-tagged hSOS1 (FRET-acceptor).
The assay buffer containes 5 mM HEPES pH 7.4 (Applichem), 150 mM NaCl (Sigma), 10 mM EDTA (Promega), 1 mM DTT (Thermofisher), 0.05% BSA Fraction V, pH 7.0, (ICN Biomedicals), 0.0025% (v/v) Igepal (Sigma) and 100 mM KF (FLUKA).
Concentrations of protein batches used are optimized to be within the linear range of the HTRF signal. A Ras working solution is prepared in assay buffer containing typically 10 nM GST-hK-RasG12C and 2 nM antiGST-Eu(K) (Cisbio, France). A SOS1 working solution is prepared in assay buffer containing typically 20 nM His-hSOS1 and 10 nM anti-6His-XL665 (Cisbio, France). An inhibitor control solution is prepared in assay buffer containing 10 nM anti-6His-XL665 without SOS1.
Fifty nl of a 100-fold concentrated solution of the test compound in DMSO are transferred into a black microtiter test plate (384 or 1536, Greiner Bio-One, Germany).
For this, either a Hummingbird liquid handler (Digilab, MA, USA) or an Echo acoustic system (Labcyte, CA, USA) is used.
All steps of the assay are performed at 20° C. A volume of 2.5 μl of the Ras working solution is added to all wells of the test plate using a Multidrop dispenser (Thermo Labsystems). After 2 min preincubation, 2.5 μl of the SOS1 working solution are added to all wells except for those wells at the side of the test plate that are subsequently filled with 2.5 μl of the inhibitor control solution. After 60 min incubation the fluorescence is measured with a Pherastar (BMG, Germany) using the HTRF module (excitation 337 nm, emission 1: 620 nm, emission 2: 665 nm).
The ratiometric data (emission 2 divided by emission 1) are normalized using the controls (DMSO=0% inhibition, inhibition control wells with inhibitor control solution=100% inhibition). […] IC50 values are calculated by 4-Parameter fitting using a commercial software package (Genedata Screener, Switzerland).

Chain of human SOS1 (SOS1) with human K-RasG12C (Q07889 564-1049): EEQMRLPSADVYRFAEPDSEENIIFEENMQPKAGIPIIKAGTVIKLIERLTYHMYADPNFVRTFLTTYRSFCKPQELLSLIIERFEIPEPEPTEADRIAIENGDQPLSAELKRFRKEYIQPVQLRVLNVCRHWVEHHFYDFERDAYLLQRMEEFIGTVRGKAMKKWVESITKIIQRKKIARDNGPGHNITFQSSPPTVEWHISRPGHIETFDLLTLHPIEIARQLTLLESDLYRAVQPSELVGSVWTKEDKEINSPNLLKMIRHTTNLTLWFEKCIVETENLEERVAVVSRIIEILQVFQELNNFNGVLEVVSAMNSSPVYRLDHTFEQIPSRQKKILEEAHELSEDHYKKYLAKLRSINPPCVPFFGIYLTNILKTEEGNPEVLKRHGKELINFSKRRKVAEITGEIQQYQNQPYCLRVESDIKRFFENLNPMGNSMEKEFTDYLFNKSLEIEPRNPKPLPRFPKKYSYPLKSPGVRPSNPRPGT

| IC50 | SMILES |
| --- | --- |
| 5.78 nM | CC(=O)N1CC=C(c2cnc3nc(C)nc(N[C@H](C)c4cccc(C(F)(F)F)c4C)c3c2)CC1 [Example 25, 1-{4-[2-methyl-4-({(1R)-1-[2-methyl-3-(trifluoromethyl)phenyl]ethyl}amino)pyrido[2,3-d]pyrimidin-6-yl]-3,6-dihydropyridin-1(2H)-yl}ethan-1-one] |
| 5.75 nM | CC(=O)N1CC=C(c2cnc3nc(C)nc(N[C@H](C)c4cccc(C(F)(F)F)c4C)c3c2)CC1 [Example 26, 1-{4-[2-methyl-4-({(1R)-1-[2-methyl-3-(trifluoromethyl)phenyl]ethyl}amino)pyrido[2,3-d]pyrimidin-6-yl]-3,6-dihydropyridin-1(2H)-yl}ethan-1-one hydrogen] |
| 7.96 nM | CC(=O)N1CC2(CC=C(c3cnc4nc(C)nc(N[C@H](C)c5cccc(C(F)(F)F)c5C)c4c3)CC2)C1 [Example 27, 1-{7-[2-methyl-4-({(1R)-1-[2-methyl-3-(trifluoromethyl)phenyl]ethyl}amino)pyrido[2,3-d]pyrimidin-6-yl]-2-azaspiro[3.5]non-6-en-2-yl}ethan-1-one] |
| 9.4 nM | CC(=O)N1CC2(CCC(c3cnc4nc(C)nc(N[C@H](C)c5cccc(C(F)(F)F)c5C)c4c3)CC2)C1 [Example 28, 1-{7-[2-methyl-4-({(1R)-1-[2-methyl-3-(trifluoromethyl)phenyl]ethyl}amino)pyrido[2,3-d]pyrimidin-6-yl]-2-azaspiro[3.5]nonan-2-yl}ethan-1-one] |
| 25.6 nM | CC(=O)N1CC2(C1)CN(c1cnc3nc(C)nc(N[C@H](C)c4cccc(C(F)F)c4F)c3c1)C2 [Example 29, 1-{6-[4-({(1R)-1-[3-(difluoromethyl)-2-fluorophenyl]ethyl}amino)-2-methylpyrido[2,3-d]pyrimidin-6-yl]-2,6-diazaspiro[3.3]heptan-2-yl}ethan-1-one] |
| 38 nM | CC(=O)N1CC=C(c2cnc3nc(C)nc(N[C@H](C)c4cccc(C(F)(F)F)c4C)c3c2)C1 [Example 30, 1-{3-[2-methyl-4-({(1R)-1-[2-methyl-3-(trifluoromethyl)phenyl]ethyl}amino)pyrido[2,3-d]pyrimidin-6-yl]-2,5-dihydro-1H-pyrrol-1-yl}ethan-1-one] |
| 66.4 nM | COc1cnc2nc(C)nc(N[C@H](C)c3cccc(C(F)(F)F)c3C)c2c1 [Example 32, 6-methoxy-2-methyl-N-{(1R)-1-[2-methyl-3-(trifluoromethyl)phenyl]ethyl}pyrido[2,3-d]pyrimidin-4-amine] |
| 27.9 nM | Cc1nc(N[C@H](C)c2cccc(C(F)(F)F)c2C)c2cc(N(C)S(C)(=O)=O)cnc2n1 [Example 33, N-methyl-N-[2-methyl-4-({(1R)-1-[2-methyl-3-(trifluoromethyl)phenyl]ethyl}amino)pyrido[2,3-d]pyrimidin-6-yl]methanesulfonamide] |
| 13 nM | Cc1nc(N[C@H](C)c2cccc(C(F)(F)F)c2C)c2cc(N3CCCS3(=O)=O)cnc2n1 [Example 34, 2-[2-methyl-4-({(1R)-1-[2-methyl-3-(trifluoromethyl)phenyl]ethyl}amino)pyrido[2,3-d]pyrimidin-6-yl]-1 lambda^6,2-thiazolidine-1,1-dione] |
| 7.71 nM | CC(=O)N1CCN(c2cnc3nc(C)nc(N[C@H](C)c4cccc(C(F)(F)F)c4C)c3c2)CC1 [Example 35, 1-{4-[2-methyl-4-({(1R)-1-[2-methyl-3-(trifluoromethyl)phenyl]ethyl}amino)pyrido[2,3-d]pyrimidin-6-yl]piperazin-1-yl}ethan-1-one] |
| 6.46 nM | CC(=O)N1CC[N+]([O-])(c2cnc3nc(C)nc(N[C@H](C)c4cccc(C(F)(F)F)c4C)c3c2)CC1 [Example 36, 1-{4-[2-methyl-4-({(1R)-1-[2-methyl-3-(trifluoromethyl)phenyl]ethyl}amino)pyrido[2,3-d]pyrimidin-6-yl]-4-oxo-4lambda^5-piperazin-1-yl}ethan-1-one] |
| 8.47 nM | CC(=O)N1CC2(C1)CN(c1cc3c(N[C@H](C)c4cccc(C(F)F)c4F)nc(C)nc3nc1C)C2 [Example 37, 1-{6-[4-({(1R)-1-[3-(difluoromethyl)-2-fluorophenyl]ethyl}amino)-2,7-dimethylpyrido[2,3-d]pyrimidin-6-yl]-2,6-diazaspiro[3.3]heptan-2-yl}ethan-1-one] |
| 46.3 nM | COc1cc2c(N[C@H](C)c3cccc(C(F)(F)F)c3C)nc(C)nc2nc1C [Example 38, 6-methoxy-2,7-dimethyl-N-{(1R)-1-[2-methyl-3-(trifluoromethyl)phenyl]ethyl}pyrido[2,3-d]pyrimidin-4-amine] |
| 16.2 nM | Cc1nc(N[C@H](C)c2cccc(C(F)F)c2F)c2cc(N3CCCS3(=O)=O)c(C)nc2n1 [Example 39, 2-[4-({(1R)-1-[3-(difluoromethyl)-2-fluorophenyl]ethyl}amino)-2,7-dimethylpyrido[2,3-d]pyrimidin-6-yl]-1 lambda^6,2-thiazolidine-1,1-dione] |
| 16.1 nM | CC(=O)N1CC(c2cnc3nc(C)nc(N[C@H](C)c4cccc(C(F)(F)F)c4C)c3c2)C1 [Example 40, 1-{3-[2-methyl-4-({(1R)-1-[2-methyl-3-(trifluoromethyl)phenyl]ethyl}amino)pyrido[2,3-d]pyrimidin-6-yl]azetidin-1-yl}ethan-1-one] |
| 23 nM | CC(=O)N1CC=C(c2cc3c(N[C@H](C)c4cccc(C(F)(F)F)c4C)nc(C)nc3nc2C(F)(F)F)CC1 [Example 41, 1-{4-[2-methyl-4-({(1R)-1-[2-methyl-3-(trifluoromethyl)phenyl]ethyl}amino)-7-(trifluoromethyl)pyrido[2,3-d]pyrimidin-6-yl]-3,6-dihydropyridin-1(2H)-yl}ethan-1-one] |
| 28.9 nM | CC(=O)N1CCC(c2cc3c(N[C@H](C)c4cccc(C(F)(F)F)c4C)nc(C)nc3nc2C(F)(F)F)CC1 [Example 42, 1-{4-[2-methyl-4-({(1R)-1-[2-methyl-3-(trifluoromethyl)phenyl]ethyl}amino)-7-(trifluoromethyl)pyrido[2,3-d]pyrimidin-6-yl]piperidin-1-yl}ethan-1-one] |
| 5.2 nM | CC(=O)N1CC=C(c2cnc3nc(C)nc(N[C@H](C)c4cccc(C(F)F)c4F)c3c2)CC1 [Example 43, 1-{4-[4-({(1R)-1-[3-(difluoromethyl)-2-fluorophenyl]ethyl}amino)-2-methylpyrido[2,3-d]pyrimidin-6-yl]-3,6-dihydropyridin-1(2H)-yl}ethan-1-one] |
| 8.43 nM | CC(=O)N1CCC(c2cnc3nc(C)nc(N[C@H](C)c4cccc(C(F)F)c4F)c3c2)CC1 [Example 44, 1-{4-[4-({(1R)-1-[3-(difluoromethyl)-2-fluorophenyl]ethyl}amino)-2-methylpyrido[2,3-d]pyrimidin-6-yl]piperidin-1-yl}ethan-1-one] |
| 21.1 nM | Cc1nc(N[C@H](C)c2cccc(C(F)(F)F)c2C)c2cc(-c3cncnc3)cnc2n1 [Example 45, 2-methyl-N-{(1R)-1-[2-methyl-3-(trifluoromethyl)phenyl]ethyl}-6-(pyrimidin-5-yl)pyrido[2,3-d]pyrimidin-4-amine] |
| 2.7 nM | CC(=O)N1CC=C(c2cnc3nc(C)nc(N[C@H](C)c4cccc(C(F)(F)C(C)(C)O)c4F)c3c2)CC1 [Example 46, 1-{4-[4-({(1R)-1-[3-(1,1-difluoro-2-hydroxy-2-methylpropyl)-2-fluorophenyl]ethyl}amino)-2-methylpyrido[2,3-d]pyrimidin-6-yl]-3,6-dihydropyridin-1(2H)-yl}ethan-1-one] |
| 4 nM | CC(=O)N1CCC(c2cnc3nc(C)nc(N[C@H](C)c4cccc(C(F)(F)C(C)(C)O)c4F)c3c2)CC1 [Example 47, 1-{4-[4-({(1R)-1-[3-(1,1-difluoro-2-hydroxy-2-methylpropyl)-2-fluorophenyl]ethyl}amino)-2-methylpyrido[2,3-d]pyrimidin-6-yl]piperidin-1-yl}ethan-1-one] |
| 9.95 nM | Cc1nc(N[C@H](C)c2cccc(C(F)(F)F)c2C)c2cc(N3CC4(CN(C(N)=O)C4)C3)cnc2n1 [Example 48, 6-[2-methyl-4-({(1R)-1-[2-methyl-3-(trifluoromethyl)phenyl]ethyl}amino)pyrido[2,3-d]pyrimidin-6-yl]-2,6-diazaspiro[3.3]heptane-2-carboxamide] |
| 3.31 nM | CC(=O)N1C2CC1CN(c1cnc3nc(C)nc(N[C@H](C)c4cccc(C(F)(F)C(C)(C)O)c4F)c3c1)C2 [Example 49, 1-{3-[4-({(1R)-1-[3-(1,1-difluoro-2-hydroxy-2-methylpropyl)-2-fluorophenyl]ethyl}amino)-2-methylpyrido[2,3-d]pyrimidin-6-yl]-3,6-diazabicyclo[3.1.1]heptan-6-yl}ethan-1-one] |
